Measurements: patent US20100248390A1, “COMPOSITIONS AND METHODS FOR IDENTIFYING LIGANDS OF ODORANT RECEPTORS” (DUKE UNIVERSITY, priority 2009, published 2010)
Structures can show the parent of a compound that is named as a salt. Where two headings read alike, the source gives them in different places.

Tests used:
[1] = biological target: T1, human odorant receptors (ORs) (Homo sapiens, UniProt Q9Y3N9); assay: CRE-luciferase assay of odorant receptor activation (Dual-Glo, Hana3A cells, RTP1S), dose-response EC50; format: cell-based; conditions: receptor OR2W1
T1 construct: OR open reading frames were amplified from genomic DNA; expressed in transfected cells; host or cells: Hana3A cells, co-transfected with RTP1S, CRE-luciferase and pRL-SV40
T1 sequence (Q9Y3N9 1-320): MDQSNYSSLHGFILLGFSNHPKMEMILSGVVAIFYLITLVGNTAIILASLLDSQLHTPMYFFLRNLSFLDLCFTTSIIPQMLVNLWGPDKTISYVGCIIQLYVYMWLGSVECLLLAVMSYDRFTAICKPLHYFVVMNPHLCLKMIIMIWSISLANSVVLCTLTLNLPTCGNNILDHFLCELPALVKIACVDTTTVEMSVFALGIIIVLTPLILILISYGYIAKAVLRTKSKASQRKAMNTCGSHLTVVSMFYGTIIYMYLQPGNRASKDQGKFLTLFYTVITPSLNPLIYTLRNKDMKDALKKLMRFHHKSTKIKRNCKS
Source text: Cloning mouse and human ORs. […] OR open reading frames were amplified from genomic DNA using proofreading KOD DNA polymerase (Toyobo/Novagen) and subcloned into pCI expression vectors (Promega) containing the first 20 residues of human rhodopsin (Rho tag). The sequences of the cloned receptors were verified by sequencing (3100 Genetic Analyzer, ABI Biosystems). Immunocytochemistry and FACS analysis. […] For FACS analysis, phycoerythrin (PE)-conjugated anti-mouse IgG (Jackson Immunologicals) was used. In order to monitor the transfection efficiency, Green Fluorescent Protein (GFP) was co-transfected with the OR. The intensity of receptor cell surface expression was calculated as the ratio of PE and GFP expression. 7-aminoactinomycin D (Calbiochem) was added before flow cytometry to mark dead cells which were excluded from the analysis. The gate and mean of PE positive cells was normalized by GFP values. Luciferase assay. […] Odorant receptor activation leads to an increase in intracellular cAMP; CRE-luciferase (Stratagene) was used to measure this change. […] Hana3A cells were plated on poly-D-lysine-coated 96-well plates (BioCoat; Becton Dickinson). […] For each 96-well plate transfected, 1 μg of CRE-Luc, 1 μg of pRL-SV40, 5 μg of odorant receptor plasmid, and 1 μg of RTP1S was used. Approximately 24 hours post transfection, the medium was replaced with CD293 chemically defined medium (Gibco) and the plate was incubed for 30 min at 37° C. The medium was then replaced with 25 μL of odorant solution diluted in CD293 and the plate was incubated for 4 hrs at 37° C. and 5% CO2. The manufacturer's protocols for measuring luciferase and Renilla luciferase activities was followed. […] All luminescence values were divided by the Renilla Luciferase activity to control for transfection efficiency in a given well. Normalized luciferase activity was calculated using the formula (LN−Lmin)/(Lmax−Lmin), where LN is the luminescence of firefly luciferase in response to the odorant, Lmin is the minimum luciferase value on a plate or set of plates, and Lmax is the maximum luciferase value on a plate or set of plates. The data was analyzed using Microsoft Excel and GraphPad Prism 4. Screening procedure. The entire OR library was stimulated with eight separate odorant mixtures formed from 93 odorants (FIG. 12). […] A comparison between the 93 individual odorants at a 100 μM dose and a no-odor control was performed for all 290 […]. Each comparison was performed in triplicate; statistical significance was assessed by t-test (uncorrected for multiple comparisons). […] A single odorant was used on each plate to avoid cross-contamination, and each OR odorant dose was tested at least three times. The data was fit to a sigmoidal curve. […] Physicochemical descriptors. […] Receptor descriptors. […] Correlations between descriptors and responses. […] All odorants for which there were fewer than 3 responsive receptors were eliminated. […] The Pearson correlation between these two sets of distances was then measured. Optimizing descriptors. […] In this method one begins with an empty set of descriptors. Each descriptor is combined with the previous set of descriptors and correlation values are computed for all of these candidate sets of descriptors. To reduce overfitting, the data is randomly divided into ten subsets and correlation values are computed for each leave-one out subset. The final correlation coefficient for each set of descriptors is the average of the correlation coefficients for each subset.
The entire OR library was stimulated with one of 8 odorant mixtures drawn from 93 odorants chosen to represent diverse functional groups, sizes, and structures (Table 3). Each mixture was applied at five different concentrations. […] The 93 odorants were then applied individually at 100 μM to the 290 mixture-responsive ORs.

[2] = tested on: mouse odorant receptors (ORs); assay: as above; format: cell-based; conditions: for log EC50 (Table 4 value), MOR271-1 / log EC50, MOR271-1: receptor MOR271-1; for log EC50 (Table 4 value), MOR5-1: receptor MOR5-1; for log EC50 (Table 4 value), MOR30-1: receptor MOR30-1; for log EC50 (Table 4 value), MOR33-1: receptor MOR33-1; for log EC50 (Table 4 value), MOR37-1: receptor MOR37-1; for log EC50 (Table 4 value), MOR258-17: receptor MOR258-17; for log EC50 (Table 4 value), MOR273-1: receptor MOR273-1
Source text: Cloning mouse and human ORs. […] OR open reading frames were amplified from genomic DNA using proofreading KOD DNA polymerase (Toyobo/Novagen) and subcloned into pCI expression vectors (Promega) containing the first 20 residues of human rhodopsin (Rho tag). The sequences of the cloned receptors were verified by sequencing (3100 Genetic Analyzer, ABI Biosystems). Immunocytochemistry and FACS analysis. […] For FACS analysis, phycoerythrin (PE)-conjugated anti-mouse IgG (Jackson Immunologicals) was used. In order to monitor the transfection efficiency, Green Fluorescent Protein (GFP) was co-transfected with the OR. The intensity of receptor cell surface expression was calculated as the ratio of PE and GFP expression. 7-aminoactinomycin D (Calbiochem) was added before flow cytometry to mark dead cells which were excluded from the analysis. The gate and mean of PE positive cells was normalized by GFP values. Luciferase assay. […] Odorant receptor activation leads to an increase in intracellular cAMP; CRE-luciferase (Stratagene) was used to measure this change. […] Hana3A cells were plated on poly-D-lysine-coated 96-well plates (BioCoat; Becton Dickinson). […] For each 96-well plate transfected, 1 μg of CRE-Luc, 1 μg of pRL-SV40, 5 μg of odorant receptor plasmid, and 1 μg of RTP1S was used. Approximately 24 hours post transfection, the medium was replaced with CD293 chemically defined medium (Gibco) and the plate was incubed for 30 min at 37° C. The medium was then replaced with 25 μL of odorant solution diluted in CD293 and the plate was incubated for 4 hrs at 37° C. and 5% CO2. The manufacturer's protocols for measuring luciferase and Renilla luciferase activities was followed. […] All luminescence values were divided by the Renilla Luciferase activity to control for transfection efficiency in a given well. Normalized luciferase activity was calculated using the formula (LN−Lmin)/(Lmax−Lmin), where LN is the luminescence of firefly luciferase in response to the odorant, Lmin is the minimum luciferase value on a plate or set of plates, and Lmax is the maximum luciferase value on a plate or set of plates. The data was analyzed using Microsoft Excel and GraphPad Prism 4. Screening procedure. The entire OR library was stimulated with eight separate odorant mixtures formed from 93 odorants (FIG. 12). […] A comparison between the 93 individual odorants at a 100 μM dose and a no-odor control was performed for all 290 […]. Each comparison was performed in triplicate; statistical significance was assessed by t-test (uncorrected for multiple comparisons). […] A single odorant was used on each plate to avoid cross-contamination, and each OR odorant dose was tested at least three times. The data was fit to a sigmoidal curve. […] Physicochemical descriptors. […] Receptor descriptors. […] Correlations between descriptors and responses. […] All odorants for which there were fewer than 3 responsive receptors were eliminated. For all remaining odorant pairs the Pearson correlation between EC50 vectors and the Euclidean distance between descriptor vectors was calculated. The Pearson correlation between these two sets of distances was then measured. Optimizing descriptors. […] In this method one begins with an empty set of descriptors. Each descriptor is combined with the previous set of descriptors and correlation values are computed for all of these candidate sets of descriptors. To reduce overfitting, the data is randomly divided into ten subsets and correlation values are computed for each leave-one out subset. The final correlation coefficient for each set of descriptors is the average of the correlation coefficients for each subset. The set with the best correlation coefficient then becomes the new set of descriptors and the process is repeated until the correlation coefficient increases by less than 0.004 in three consecutive iterations.

[3] = read-out: log EC50 (Table 4 value), OR2W1 (converted)
[4] = read-out: log EC50 of odorant at OR2W1 (0 = no response) (converted)

CCCCCCC=O [Heptonal]
log EC50 (Table 4 value), OR2W1 [1]: −4.056

CCCCCCO [Hexanol]
log EC50 (Table 4 value), OR2W1 [1]: −5.102
log EC50 (Table 4 value), MOR1-1 ([2]; receptor MOR1-1): −3.987
log EC50 (Table 4 value), MOR4-1 ([2]; receptor MOR4-1): −3.231
log EC50 (Table 4 value), MOR271-1 [2]: −3.322

c1ccccc1 [Benzene]
log EC50 (Table 4 value), MOR271-1 [2]: −4.005

CCCCCCCCCC(=O)O [Decanoic acid]
EC50 [1, 3]: 175 µM
log EC50 (Table 4 value), MOR5-1 [2]: −3.749
log EC50 (Table 4 value), MOR25-1 ([2]; receptor MOR25-1): −4.194
log EC50 (Table 4 value), MOR30-1 [2]: −4.987
log EC50 (Table 4 value), MOR33-1 [2]: −4.487
log EC50 (Table 4 value), MOR37-1 [2]: −4.323
log EC50 (Table 4 value), MOR40-1 ([2]; receptor MOR40-1): −4.121
log EC50 (Table 4 value), MOR203-1 ([2]; receptor MOR203-1): −3.751
log EC50 (Table 4 value), MOR258-17 [2]: −4.627
log EC50 (Table 4 value), MOR260-1 ([2]; receptor MOR260-1): −3.542

CCCCC(C)=O [2-Hexanone]
EC50 ([1]; 0 = no response, read-out: log EC50, OR2W1 (converted)): 73.3 µM
log EC50, MOR271-1 ([2]; 0 = no response): −4.936
log EC50, MOR272-1 ([2]; receptor MOR272-1, 0 = no response): −4.251

CCCCOC=O [Butyl formate]
EC50 [1, 3]: 37.4 µM

CCCCCOC(=O)CCCCC [Amyl hexanote]
log EC50 (Table 4 value), MOR258-17 [2]: −4.462

CCCCCCOC(C)=O [Hexyl acetate]
EC50 [1, 4]: 13.7 µM

CCCCCO [1-Pentanol]
log EC50, MOR41-1 ([2]; receptor MOR41-1, 0 = no response): −3.537

O=c1cc(O)c2ccccc2o1 [4-Hydroxycoumarin]
log EC50 (Table 4 value), MOR41-1 ([2]; receptor MOR41-1): −4.344

CCC(C(=O)O)c1ccccc1 (single isomer, unassigned; (-)) [(−)-2-Phenylbutric acid]
log EC50, MOR2-1 ([2]; receptor MOR2-1, 0 = no response): −2.982

O=C1CCCCC1 [Cyclohexanone]
log EC50 (Table 4 value), MOR41-1 ([2]; receptor MOR41-1): −3.456
log EC50 (Table 4 value), MOR136-1 ([2]; receptor MOR136-1): −3.065
log EC50 (Table 4 value), MOR139-1 ([2]; receptor MOR139-1): −3.138
log EC50 (Table 4 value), MOR185-1 ([2]; receptor MOR185-1): −3.594
log EC50 (Table 4 value), MOR251-1 ([2]; receptor MOR251-1): −3.193
log EC50 (Table 4 value), MOR253-1 ([2]; receptor MOR253-1): −3.219
log EC50 (Table 4 value), MOR258-1 ([2]; receptor MOR258-1): −3.824
log EC50 (Table 4 value), MOR258-17 [2]: −4.1
log EC50 (Table 4 value), MOR271-1 [2]: −3.463
log EC50 (Table 4 value), MOR272-1 ([2]; receptor MOR272-1): −3.254
log EC50 (Table 4 value), MOR273-1 [2]: −3.208
log EC50 (Table 4 value), MOR277-1 ([2]; receptor MOR277-1): −3.568

CCCCCCCC=O [Octanal]
EC50 [1, 4]: 43.6 µM

CC12CCC(CC1=O)C2(C)C (stereo not drawn) [(−)-Camphor]
log EC50, MOR107-1 ([2]; receptor MOR107-1, 0 = no response): −3.704
log EC50, MOR128-2 ([2]; receptor MOR128-2, 0 = no response): −4.373
log EC50, MOR138-1 ([2]; receptor MOR138-1, 0 = no response): −4.952
log EC50, MOR139-1 ([2]; receptor MOR139-1, 0 = no response): −3.902
log EC50, MOR189-1 ([2]; receptor MOR189-1, 0 = no response): −4.839
log EC50, MOR277-1 ([2]; receptor MOR277-1, 0 = no response): −3.861

CCCCC(=O)O [Pentanoic acid]
log EC50 of odorant at MOR1-1 (0 = no response) ([2]; receptor MOR1-1): −4.813

CCOC(=O)C(C)C [Ethyl isobutyrate]
log EC50 (Table 4 value), MOR271-1 [2]: −4.077
log EC50 (Table 4 value), MOR272-1 ([2]; receptor MOR272-1): −5.25
log EC50 (Table 4 value), MOR273-1 [2]: −5.761

CCCCCCC(=O)O [Heptanoic acid]
log EC50 (Table 4 value), MOR1-1 ([2]; receptor MOR1-1): −3.823
log EC50 (Table 4 value), MOR5-1 [2]: −3.583
log EC50 (Table 4 value), MOR23-1 ([2]; receptor MOR23-1): −4.856
log EC50 (Table 4 value), MOR30-1 [2]: −3.575
log EC50 (Table 4 value), MOR31-1 ([2]; receptor MOR31-1): −5.2
log EC50 (Table 4 value), MOR33-1 [2]: −4.148

CCCC(C)=O [2-Penonone]
log EC50, MOR271-1 ([2]; 0 = no response): −5.111

CCCCCCCCCC=O [Daconal]
log EC50 (Table 4 value), MOR30-1 [2]: −4.033
log EC50 (Table 4 value), MOR37-1 [2]: −3.477

COc1cc(C(=O)O)ccc1O [Vanillic acid]
log EC50 of odorant at MOR9-1 (0 = no response) ([2]; receptor MOR9-1): −6.334
log EC50 of odorant at MOR15-1 (0 = no response) ([2]; receptor MOR15-1): −3.587
